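The compound was tested at five concentrations on cells cultured in 96-well plates, with a 48-hour exposure period. GI50 marks 50% less growth.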 Activity calls are given as the source filed them. Rule as the data show it: active = GI50 up to about 1.1 µM and inactive = higher.
Experiments:
Assay in all cases: NCI-60 cell line screen, 48 h
MOLT-4 = system: MOLT-4
CCRF-CEM = system: CCRF-CEM
786-0 = system: 786-0
NCI/ADR-RES = system: NCI/ADR-RES
EKVX = system: EKVX
K562 = system: K562
SK-MEL-2 = system: SK-MEL-2
ACHN = system: ACHN
KM12 = system: KM12
LOX IMVI = system: LOX IMVI
SN12C = system: SN12C
SK-MEL-28 = system: SK-MEL-28
PC-3 = system: PC-3
SR = system: SR
HL-60 = system: HL-60
UO-31 = system: UO-31
OVCAR-5 = system: OVCAR-5
RPMI-8226 = system: RPMI-8226
UACC-257 = system: UACC-257
NCI-H23 = system: NCI-H23
SK-OV-3 = system: SK-OV-3
HCT-15 = system: HCT-15
RXF 393 = system: RXF 393
SF-539 = system: SF-539
NCI-H460 = system: NCI-H460
Hs-578T = system: Hs-578T
HOP-62 = system: HOP-62
DU-145 = system: DU-145
BT-549 = system: BT-549
HCT-116 = system: HCT-116
A549 = system: A549
SF-268 = system: SF-268
SW-620 = system: SW-620
MCF7 = system: MCF7
U-251 = system: U-251
OVCAR-3 = system: OVCAR-3
CAKI-1 = system: CAKI-1
HT-29 = system: HT-29
SK-MEL-5 = system: SK-MEL-5
M14 = system: M14
SF-295 = system: SF-295
UACC-62 = system: UACC-62
OVCAR-4 = system: OVCAR-4
OVCAR-8 = system: OVCAR-8
COLO 205 = system: COLO 205
HOP-92 = system: HOP-92
SNB-75 = system: SNB-75
SNB-19 = system: SNB-19
MDA-N = system: MDA-N
Malme-3M = system: Malme-3M
TK-10 = system: TK-10
MDA-MB-435 = system: MDA-MB-435
IGROV-1 = system: IGROV-1
MDA-MB-231 = system: MDA-MB-231
NCI-H226 = system: NCI-H226
HCC 2998 = system: HCC 2998
T47D = system: T47D
A498 = system: A498
NCI-H522 = system: NCI-H522

CCOC(=O)CON=c1c2ccccc2ccc2ccccc12
GI50 (MOLT-4): > 100 µM (inactive)
GI50 (CCRF-CEM): > 100 µM (inactive)
GI50 (786-0): > 100 µM (inactive)
GI50 (NCI/ADR-RES): > 100 µM (inactive)
GI50 (EKVX): > 100 µM (inactive)
GI50 (K562): > 100 µM (inactive)
GI50 (SK-MEL-2): > 100 µM (inactive)
GI50 (ACHN): > 100 µM (inactive)
GI50 (KM12): > 100 µM (inactive)
GI50 (LOX IMVI): > 100 µM (inactive)
GI50 (SN12C): > 100 µM (inactive)
GI50 (SK-MEL-28): > 100 µM (inactive)
GI50 (PC-3): > 100 µM (inactive)
GI50 (SR): > 100 µM (inactive)
GI50 (HL-60): > 100 µM (inactive)
GI50 (UO-31): > 100 µM (inactive)
GI50 (OVCAR-5): > 100 µM (inactive)
GI50 (RPMI-8226): > 100 µM (inactive)
GI50 (UACC-257): > 100 µM (inactive)
GI50 (NCI-H23): > 100 µM (inactive)
GI50 (SK-OV-3): > 100 µM (inactive)
GI50 (HCT-15): > 100 µM
GI50 (RXF 393): > 100 µM (inactive)
GI50 (SF-539): > 100 µM (inactive)
GI50 (NCI-H460): > 100 µM (inactive)
GI50 (Hs-578T): > 100 µM (inactive)
GI50 (HOP-62): > 100 µM (inactive)
GI50 (DU-145): > 100 µM (inactive)
GI50 (BT-549): > 100 µM (inactive)
GI50 (HCT-116): > 100 µM (inactive)
GI50 (A549): > 100 µM (inactive)
GI50 (SF-268): > 100 µM (inactive)
GI50 (SW-620): > 100 µM (inactive)
GI50 (MCF7): > 100 µM (inactive)
GI50 (U-251): > 100 µM (inactive)
GI50 (OVCAR-3): > 100 µM (inactive)
GI50 (CAKI-1): > 100 µM (inactive)
GI50 (HT-29): > 100 µM (inactive)
GI50 (SK-MEL-5): > 100 µM (inactive)
GI50 (M14): > 100 µM (inactive)
GI50 (SF-295): > 100 µM (inactive)
GI50 (UACC-62): > 100 µM (inactive)
GI50 (OVCAR-4): > 100 µM (inactive)
GI50 (OVCAR-8): > 100 µM (inactive)
GI50 (COLO 205): > 100 µM (inactive)
GI50 (HOP-92): > 100 µM (inactive)
GI50 (SNB-75): > 100 µM (inactive)
GI50 (SNB-19): > 100 µM (inactive)
GI50 (MDA-N): > 100 µM (inactive)
GI50 (Malme-3M): > 100 µM (inactive)
GI50 (TK-10): > 100 µM (inactive)
GI50 (MDA-MB-435): > 100 µM (inactive)
GI50 (IGROV-1): > 100 µM (inactive)
GI50 (MDA-MB-231): > 100 µM (inactive)
GI50 (NCI-H226): > 100 µM (inactive)
GI50 (HCC 2998): 26.1 µM (inactive)
GI50 (T47D): > 100 µM (inactive)

Cc1nn(-c2ccccc2)c2c1CC(=O)Nc1ccccc1-2
GI50 (MOLT-4): 0.522 µM (active)
GI50 (CCRF-CEM): 0.44 µM (active)
GI50 (786-0): 0.951 µM (active)
GI50 (NCI/ADR-RES): 0.413 µM (active)
GI50 (EKVX): 9.66 µM (inactive)
GI50 (K562): 0.412 µM (active)
GI50 (SK-MEL-2): 1.65 µM (inactive)
GI50 (ACHN): 1.05 µM (active)
GI50 (KM12): 0.571 µM (active)
GI50 (LOX IMVI): 0.507 µM (active)
GI50 (SK-MEL-28): 0.839 µM (active)
GI50 (PC-3): 0.679 µM (active)
GI50 (SR): 0.269 µM (active)
GI50 (HL-60): 0.236 µM (active)
GI50 (UO-31): 2.94 µM (inactive)
GI50 (OVCAR-5): 4.82 µM (inactive)
GI50 (RPMI-8226): 0.484 µM (active)
GI50 (UACC-257): 0.555 µM (active)
GI50 (NCI-H23): 1.6 µM (inactive)
GI50 (SK-OV-3): 1.81 µM (inactive)
GI50 (HCT-15): 0.618 µM
GI50 (A498): 1.59 µM (inactive)
GI50 (RXF 393): 0.313 µM (active)
GI50 (SF-539): 0.607 µM (active)
GI50 (NCI-H460): 0.521 µM (active)
GI50 (Hs-578T): 0.522 µM (active)
GI50 (HOP-62): 3.15 µM (inactive)
GI50 (DU-145): 2.65 µM (inactive)
GI50 (BT-549): 0.687 µM (active)
GI50 (HCT-116): 0.409 µM (active)
GI50 (A549): 1.61 µM (inactive)
GI50 (SF-268): 1.63 µM (inactive)
GI50 (SW-620): 0.374 µM (active)
GI50 (MCF7): 0.372 µM (active)
GI50 (U-251): 0.743 µM (active)
GI50 (OVCAR-3): 0.482 µM (active)
GI50 (CAKI-1): 2.82 µM (inactive)
GI50 (HT-29): 0.424 µM (active)
GI50 (SK-MEL-5): 0.379 µM (active)
GI50 (M14): 0.553 µM (active)
GI50 (SF-295): 0.318 µM (active)
GI50 (NCI-H522): 0.509 µM (active)
GI50 (UACC-62): 0.521 µM (active)
GI50 (OVCAR-4): 18.5 µM (inactive)
GI50 (OVCAR-8): 2.06 µM (inactive)
GI50 (COLO 205): 0.538 µM (active)
GI50 (HOP-92): 4.18 µM (inactive)
GI50 (SNB-75): 0.482 µM (active)
GI50 (SNB-19): 2.55 µM (inactive)
GI50 (MDA-N): 0.187 µM (active)
GI50 (TK-10): 0.566 µM (active)
GI50 (MDA-MB-435): 0.204 µM (active)
GI50 (IGROV-1): 1.6 µM (inactive)
GI50 (MDA-MB-231): 1.48 µM (inactive)
GI50 (NCI-H226): 5.01 µM (inactive)
GI50 (T47D): > 10 µM (inactive)
